Laboratory results published in patent US7511065B2, “Mixed lineage kinase modulators” (Eli Lilly and Company, priority 2002, dated 2009).
Counter-ions that a name gives are not always drawn.

biological target: T1, MLK-7 (Homo sapiens, UniProt Q9NYL2); experiment: In vitro assay of purified MLK-7 kinase activity (33P transfer from ATP to myelin basic protein); format: biochemical; details: recombinant GST-tagged MLK-7 at 1 nm, 30 uM ATP, 5 uM MBP substrate, 2 hours room temperature; read-out: MLK7 IC50
T1 construct: GST; His tag; made in house; host or cells: Sf9 insect cells (baculovirus, pVL1392)
Text: In Vitro Assay of Purified Mixed Lineage Kinase 7 (MLK-7) Activity:
Briefly, recombinant glutathione-s-transferase (GST) tagged MLK-7 is expressed in Sf9 cells using a recombinant baculovirus created using baculovirus transfer vector pVL1392 modified to contain a GST and histidine tag. The recombinant protein is purified over a glutathione column and subsequently used for in vitro kinase assays with myelin basic protein (MBP) as the substrate for phosphorylation. The in vitro kinase reaction is run with recombinant MLK-7 at 1 nm and various concentrations of test compound in a reaction mixture containing 2 mM DTT, 30 uM ATP, 5 mM MgCl2, 5 uM MBP, 4% DMSO, 5 uCi 33P in 44 mM HEPES, (pH 7.4). The reaction is carried out for 2 hours at room temperature and then stopped by the addition of phosphoric acid to 5.5%. The phosphorylated MBP is collected on a filter and radioactivity associated with the membrane measured using a scintillation counter. Inhibitors are identified by the ability to reduce the transfer of radioactive phosphate from ATP to MBP compared to controls run without test compound.
IC50 values, defined as the concentration of test compound required to decrease the transfer of radioactive phosphate from ATP to MBP by 50%, are then determined. Ki values (which refers to the dissociation constant of an enzyme-antagonist complex and serves as an index of ligand binding) for each respective test compound can also be calculated by application of the Cheng-Prusoff equation as described in Cheng et al., Relationship Between The Inhibition Constant (Ki) and The Concentration of Inhibitor Which Causes 50% Inhibition (IC50) of an Enzymatic Reaction, Biochem. Pharmacol., 22: […]; (1973).
Representative compounds of the present invention have an IC50 in the MLK-7 kinase assay of ≦10,000 nM Table I (see infra.) provides IC50 data from the afore mentioned MLK-7 kinase assay for a representative sample of the exemplified compounds of the present invention.

T1 sequence (Q9NYL2 1-455 isoform Q9NYL2-2): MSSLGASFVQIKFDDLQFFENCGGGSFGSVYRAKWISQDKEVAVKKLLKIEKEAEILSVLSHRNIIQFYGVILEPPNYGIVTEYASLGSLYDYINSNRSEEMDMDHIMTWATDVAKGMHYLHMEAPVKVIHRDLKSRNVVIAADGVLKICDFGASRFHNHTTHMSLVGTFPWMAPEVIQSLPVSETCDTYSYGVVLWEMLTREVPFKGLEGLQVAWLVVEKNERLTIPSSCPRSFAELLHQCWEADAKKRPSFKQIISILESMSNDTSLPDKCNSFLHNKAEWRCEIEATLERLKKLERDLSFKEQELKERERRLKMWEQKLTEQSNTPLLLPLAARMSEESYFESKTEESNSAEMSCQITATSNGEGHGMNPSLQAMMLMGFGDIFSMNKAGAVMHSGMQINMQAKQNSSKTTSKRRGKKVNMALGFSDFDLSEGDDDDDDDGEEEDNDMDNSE

SMILES	IC50 [nM]
c1ccc(-c2nn3c(c2-c2ccnc4cc(-c5ccc6c(c5)OCO6)ccc24)CCC3)nc1 [Example 40, 7-Benzo[1,3]dioxol-5-yl-4-(2-pyridin-2-yl-5,6-dihydro-4H-pyrrolo[1,2-b]pyrazol-3-yl)quinoline Trifluoroacetic Acid]	≤ 100
c1ccc(-c2ccc3c(-c4c(-c5ccccn5)nn5c4CCC5)ccnc3c2)cc1 [Example 4, 7-Phenyl-4-(2-pyridin-2-yl-5,6-dihydro-4H-pyrrolo[1,2-b]pyrazol-3-yl)quinoline Trifluoroacetic Acid]	≤ 100
Oc1cccc(-c2ccc3c(-c4c(-c5ccccn5)nn5c4CCC5)ccnc3c2)c1 [Example 6, 3-[4-(2-Pyridin-2-yl-5,6-dihydro-4H-pyrrolo[1,2-b]pyrazol-3-yl)quinolin-7-yl]phenol Trifluoroacetic Acid]	≤ 100
CSc1ccc(-c2ccc3c(-c4c(-c5ccccn5)nn5c4CCC5)ccnc3c2)cc1 [Example 25, 7-(4-Methylsulfanylphenyl)-4-(2-pyridin-2-yl-5,6-dihydro-4H-pyrrolo[1,2-b]pyrazol-3-yl)quinoline Trifluoroacetic Acid]	≤ 1000
Clc1cccc(-c2ccc3c(-c4c(-c5ccccn5)nn5c4CCC5)ccnc3c2)c1 [Example 11, 7-(3-Chlorophenyl)-4-(2-Pyridin-2-yl-5,6-dihydro-4H-pyrrolo[1,2-b]pyrazol-3-yl)quinoline Trifluoroacetic Acid]	≤ 100
CCOc1ccccc1-c1ccc2c(-c3c(-c4ccccn4)nn4c3CCC4)ccnc2c1 [Example 17, 7-(2-Ethoxyphenyl)-4-(2-pyridin-2-yl-5,6-dihydro-4H-pyrrolo[1,2-b]pyrazol-3-yl)quinoline Trifluoroacetic Acid]	≤ 10000
c1ccc(-c2nn3c(c2-c2ccnc4cc(-c5ccc6[nH]ccc6c5)ccc24)CCC3)nc1 [Example 27, 7-(1H-Indol-5-yl)-4-(2-pyridin-2-yl-5,6-dihydro-4H-pyrrolo[1,2-b]pyrazol-3-yl)quinoline Ditrifluoroacetic Acid]	≤ 100
CCOc1cccc(-c2ccc3c(-c4c(-c5ccccn5)nn5c4CCC5)ccnc3c2)c1 [Example 18, 7-(3-Ethoxyphenyl)-4-(2-pyridin-2-yl-5,6-dihydro-4H-pyrrolo[1,2-b]pyrazol-3-yl)quinoline Trifluoroacetic Acid]	≤ 100
O=C(O)c1ccc(-c2ccc3c(-c4c(-c5ccccn5)nn5c4CCC5)ccnc3c2)cc1 [Example 41, 4-[4-(2-pyridin-2-yl-5,6-dihydro-4H-pyrrolo[1,2-b]pyrazol-3-yl)quinolin-7-yl]benzoic Acid Trifluoroacetic Acid]	≤ 100
COc1ccc(-c2ccc3c(-c4c(-c5ccccn5)nn5c4CCC5)ccnc3c2)cc1C [Example 32, 7-(4-Methoxy-3-methylphenyl)-4-(2-Pyridin-2-yl-5,6-dihydro-4H-pyrrolo[1,2-b]pyrazol-3-yl)quinoline Trifluoroacetic Acid]	≤ 1000
N#Cc1ccc(-c2ccc3c(-c4c(-c5ccccn5)nn5c4CCC5)ccnc3c2)cc1 [Example 26, 4-[4-(2-Pyridin-2-yl-5,6-dihydro-4H-pyrrolo[1,2-b]pyrazol-3-yl)quinolin-7-yl]benzonitrile Trifluroacetic Acid]	≤ 100
Cc1cccc(-c2nn3c(c2-c2ccnc4cc(-c5ccc(CCC(=O)O)cc5)ccc24)CCC3)n1 [Example 58, 3-(4-{4-[2-(6-Methyl-pyridin-2-yl)-5,6-dihydro-4H-pyrrolo[1,2-b]pyrazol-3-yl]-quinolin-7-yl}-phenyl)-propionic acid]	≤ 100
O=C(O)C(F)F.c1ccc(-c2nn3c(c2-c2ccnc4cc(-c5nc6ccccc6[nH]5)ccc24)CCC3)nc1 [Example 87, 7-(1H-Benzoimdazol-2-yl)-4-(2-pyridin-2-yl-5,6-dihydro-4H-pyrrolo[1,2-b]pyrazol-3-yl)quinoline Difluoroacetic Acid]	≤ 100
Nc1ccccc1-c1ccc2c(-c3c(-c4ccccn4)nn4c3CCC4)ccnc2c1 [Example 8, 2-[4-(2-Pyridin-2-yl-5,6-dihydro-4H-pyrrolo[1,2-b]pyrazol-3-yl)quinolin-7-yl]phenylamine Ditrifluoroacetic Acid]	≤ 1000
c1ccc(-c2nn3c(c2-c2ccnc4cc(-c5cc6ccccc6s5)ccc24)CCC3)nc1 [Example 47, 7-Benzo[b]thiophen-2-yl-4-(2-pyridin-2-yl-5,6-dihydro-4H-pyrrolo[1,2-b]pyrazol-3-yl)quinoline Trifluoroacetic Acid]	≤ 1000
CC(=O)c1ccc(-c2ccc3c(-c4c(-c5ccccn5)nn5c4CCC5)ccnc3c2)cc1 [Example 28, 1-{4-[4-(2-Pyridin-2-yl-5,6-dihydro-4H-pyrrolo[1,2-b]pyrazol-3-yl)quinolin-7-yl]phenyl}ethanone Trifluoroacetic Acid]	≤ 100

Next, values leading:

IC50 [nM]	SMILES
≤ 100	Cc1ccc(-c2ccc3c(-c4c(-c5ccccn5)nn5c4CCC5)ccnc3c2)cc1 [Example 77, 4-(2-pyridin-2-yl-5,6-dihydro-4H-pyrrolo[1,2-b]pyrazol-3-yl)-7-p-tolylquinoline Trifluoroacetic Acid]
≤ 100	FC(F)(F)COc1ccc(-c2ccc3c(-c4c(-c5ccccn5)nn5c4CCC5)ccnc3c2)cc1 [Example 120, 4-(2-Pyridin-2-yl-5,6-dihydro-4H-pyrrolo[1,2-b]pyrazol-3-yl)-7-[4-(2,2,2-trifluoroethoxy)phenyl)quinoline Trifluoroacetic Acid]
≤ 100	O=C(O)CC[C@H](NC(=O)c1ccc(-c2ccc3c(-c4c(-c5ccccn5)nn5c4CCC5)ccnc3c2)cc1)C(=O)O [Example 146, 2(S)-{4-[4-(2-Pyridin-2-yl-5,6-dihydro-4H-pyrrolo[1,2-b]pyrazol-3-yl)-quinolin-7-yl]-benzoylamino}-pentanedioic Acid Trifluoroacetic Acid Salt]
≤ 1000	c1ccc(-c2nn3c(c2-c2ccnc4cc(-c5cnccn5)ccc24)CCC3)nc1 [Example 67, 7-Pyrazin-2-yl-4-(2-Pyridin-2-yl-5,6-dihydro-4H-pyrrolo[1,2-b]pyrazol-3-yl)quinoline Ditrifluoroacetic Acid]
≤ 100	Oc1cc(-c2ccc3c(-c4c(-c5ccccn5)nn5c4CCC5)ccnc3c2)cc(F)c1F [Example 93, 2,3-Difluoro-5-[4-(2-pyridin-2-yl-5,6-dihydro-4H-pyrrolo[1,2-b]pyrazol-3-yl)-quinolin-7-yl]-phenol Trifluoroacetic Acid]
≤ 100	O=C(O)c1cccc(-c2ccc3c(-c4c(-c5ccccn5)nn5c4CCC5)ccnc3c2)n1 [Example 82, 6-[4-(2-Pyridin-2-yl-5,6-dihydro-4H-pyrrolo[1,2-b]pyrazol-3-yl)quinolin-7-yl]pyridine-2-carboxylic Acid Tris-trifluoroacetic Acid]
≤ 100	Cc1cccc(-c2nn3c(c2-c2ccnc4cc(-c5ccccc5)ccc24)CCC3)n1 [Example 61, 7-Phenyl-4-[2-(6-methyl-pyridin-2-yl)-5,6-dihydro-4H-pyrrolo[1,2-b]pyrazol-3-yl]-quinoline Trifluoroacetic Acid]
≤ 100	c1ccc(-c2nn3c(c2-c2ccnc4cc(-c5ccc(OCCN6CCCC6)cc5)ccc24)CCC3)nc1 [Example 111, 4-(2-Pyridin-2-yl-5,6-dihydro-4H-pyrrolo[1,2-b]pyrazol-3-yl)-7-[4-(2-pyrrolidin-1-yl-ethoxy)phenyl] quinoline Ditrifluoroacetic Acid]
≤ 100	c1ccc(-c2nn3c(c2-c2ccnc4cc(-c5cc6ccccc6[nH]5)ccc24)CCC3)nc1 [Example 70, 7-(1H-Indol-2-yl)-4-(2-pyridin-2-yl-5,6-dihydro-4H-pyrrolo[1,2-b]pyrazol-3-yl)quinoline Ditrifluoroacetic Acid]
≤ 100	Oc1c(F)cc(-c2ccc3c(-c4c(-c5ccccn5)nn5c4CCC5)ccnc3c2)cc1Cl [Example 91, 2-Chloro-6-fluoro-4-[4-(2-pyridin-2-yl-5,6-dihydro-4H-pyrrolo[1,2-b]pyrazol-3-yl)-quinolin-7-yl]-phenol Trifluoroacetic Acid]
≤ 100	COC(=O)CCc1ccc(-c2ccc3c(-c4c(-c5ccccn5)nn5c4CCC5)ccnc3c2)cc1 [Example 106, 3-{4-[4-(2-pyridin-2-yl-5,6-dihydro-4H-pyrrolo[1,2-b]pyrazol-3-yl-)quinolin-7-yl]phenyl}propionic Acid Methyl Ester]
≤ 100	c1ccc(-c2nn3c(c2-c2ccnc4cc(-c5ccc(OCCN6CCCCC6)cc5)ccc24)CCC3)nc1 [Example 110, 7-[4-(2-Piperidin-1-yl-ethoxy)phenyl]-4-(2-Pyridin-2-yl-5,6-dihydro-4H-pyrrolo[1,2-b]pyrazol-3-yl)quinoline Ditrifluoroacetic Acid]
